# Experimental data from US20250127772A1, “SPECIFIC TETRADENTATE COPPER CHELATORS FOR THE TREATMENT OF WILSON'S DISEASE” (GUANGDONG UNIVERSITY OF TECHNOLOGY, priority 2023, published 2025).
# Several values for one entry are separate records, joined by “and”; a condition that tells them apart may be missing. Equal values may be shown once. Read-outs that look alike come from different tables or passages of the source.
# Experiments:
# ceruloplasmin (CP) = experiment: Serum ceruloplasmin by TMT LC-MS/MS in treated TX mice; format: in vivo, mouse; settings: for CP level compared with control mice: serum of TX mice
# Protocol: (§1) In order to confirm the positive role of TDMQ20 in the treatment of TX mice, we performed proteomic experiments. Samples from three mice of each group were depicted in Table 1, The samples were treated with TMT (Tandem Mass Tag) and detected by quantitative LC-MS/MS, then the data were analyzed with ProteomeDiscoverer 2.4.1.15 (ThermoFisher Scientific). Confidence proteins were screened according to the criteria of Sequest program score greater than 0 and number of unique peptides greater than or equal to 1, and blank values were removed.
# The concentration of ceruloplasmin (CP), that contains the most part of blood copper, was measured by TMT LC-MS/MS in the serum of WD mice. […] The CP level was equal (25 mg/kg) or higher (50 mg/kg) than that observed in control mice. Since the level of CP is considered as a significant parameter in the clinical control of human Wilson's disease, the reversal of the CP impairment upon treatment by TDMQ20 confirms that this drug has a very good profile as drug-candidate for the treatment of Wilson's disease.
# serum DEPs = experiment: Serum differentially expressed proteins (TMT LC-MS/MS) in treated TX mice; format: in vivo, mouse
# Protocol: as §1
# Other differentially expressed proteins (DEPs) were screened at p<0.05 in the WD mouse group compared to the control group. […] Results are reported in Table 3 and 4 for hepatic and serum proteins, respectively.
# [1] = system: homozygous toxic-milk mouse model (TX model); format: in vivo; settings: for Cu content Brain / Cu content Feces / Cu content Kidney / Cu content Liver / Cu content Serum / Cu content Urine: mean of 6 mice ± SEM
# Description: The selected drug-candidate TDMQ20 has been evaluated on the homozygous toxic-milk mouse model (TX model), a regular murine model of Wilson disease, suitable for evaluation of drug-candidates (for a review, see E. Reed et al., J. Neurochem., 146, 356-373, 2018). TX mice are bearing a naturally occurring point mutation on ATP7B resulting in a methionine changed for a valine, that causes the loss of copper transportation by this protein. C57BL/6 mice have no mutation on ATP7B and were used as control mice in the evaluation of TDMQ20. TX mice were provided by Sun Yat-Sen University (Guangzhou) and C57BL/6 mice by the Guangdong experimental animal center (Guangzhou) and all experiments were performed according to protocols approved by the Welfare Laboratory Animals Committee of the Guangdong University of Technology (approval n° GDUTXS2022083 dated on 3 Aug. 2022), in the framework of the 3 Rs principle.
# […] TX mice (WD) and 8-week-old C57BL/6 mice (Control) were used. TX mice (as WD, TDMQ-L, TDMQ-M, TDMQ-H groups, respectively) received the drug TDMQ20 by intragastric gavage twice a day for 14 consecutive days (at 0, 12.5, 25.0, 50.0 mg/kg in NaCl 0.9%). On the same schedule, C57BL/6 mice (as control group) received NaCl 0.9%. Treatment of WD mice with DPA (200 mg/kg) was used as comparison (DPA group). Six groups of 6 mice were used.
# At the end of the treatment period, mice (10-week old) were placed in metabolic cages for 12 h in order to collect urine and feces. At the end of this 12 h-period, mice were anesthetized using 2.5% Avertin diluted in 0.9% NaCl at a dose of […] body weight and sacrificed. Cardiac blood was collected and left at room temperature for 30 minutes before centrifugation at 4° C. at 3000 r/min for 10 minutes to obtain serum samples. During this 30-min period, liver, kidney, brain and serum were also collected. Copper concentrations in urine and feces, serum, liver, kidney and brain were determined by inductively coupled plasma mass spectrometry (ICP-MS). Data analysis was carried out using SPSS Statistics software (version 26). Data are provided as mean values±standard error of the mean (SEM). Statistical analyses were performed using one-way ANOVA for liver, feces and urine, and by non-parametric test for serum, kidney, and brain. Differences with p>0.05 were considered as no significance (ns), * p<0.05, ** p<0.01, and *** p<0.001, n=6. Graph presentations were drawn with Prism GraphPad 8.0.2.
# [2] = serum, 25 mg/kg/day, DEP down-regulated in WD
# [3] = serum, 25 mg/kg/day, DEP up-regulated in WD
# [4] = serum, 50 mg/kg/day, DEP down-regulated in WD
# [5] = serum, 50 mg/kg/day, DEP up-regulated in WD
# [6] = TX mice, TDMQ20-H 50 mg/kg/day gavage 14 days
# [7] = TX mice, TDMQ20-L 12.5 mg/kg/day gavage 14 days
# [8] = TX mice, TDMQ20-M 25 mg/kg/day gavage 14 days
compound,measurement,setting,value
CN(C)CCNCCc1ccc2c(Cl)cc(Cl)c(N)c2n1 [TDMQ20],level of CP compared to WD mice,ceruloplasmin (CP); TDMQ20 at 25 or 50 mg/kg,significantly increased
same,CP level compared with control mice,ceruloplasmin (CP); TDMQ20 25 mg/kg,equal
same,CP level compared with control mice,ceruloplasmin (CP); TDMQ20 50 mg/kg,higher
same,serum DEPs TDMQ20-H/control ratio,serum DEPs; TDMQ20 50 mg/kg,~1
same,serum DEPs after treatment,serum DEPs; TDMQ20 at 25 or 50 mg/kg,reversed to normal values
same,"TDMQ20-M/ctrl fold change: Alpha-aminoadipic semialdehyde synthase, mitochondrial (Aass)",serum DEPs; [2],0.97
same,TDMQ20-M/ctrl fold change: Cystatin-C (Cst3),serum DEPs; [2],0.88
same,TDMQ20-M/ctrl fold change: Elongation factor 1-delta (Eef1d),serum DEPs; [2],0.85
same,"TDMQ20-M/ctrl fold change: GrpE protein homolog 1, mitochondrial (Grpel1)",serum DEPs; [2],0.95
same,TDMQ20-M/ctrl fold change: Transgelin-2 (Tagln2),serum DEPs; [2],0.87
same,TDMQ20-M/ctrl fold change: Ig heavy chain V region 1-72 (Ighv1-72),serum DEPs; [3],1.08
same,TDMQ20-M/ctrl fold change: Regucalcin (Rgn),serum DEPs; [3],1.06
same,TDMQ20-M/ctrl fold change: Ribonuclease 4 (Rnase4),serum DEPs; [3],1.10
same,TDMQ20-M/ctrl fold change: Triokinase/FMN cyclase (Tkfc),serum DEPs; [3],1.07
same,TDMQ20-M/ctrl fold change: Tropomyosin alpha-3 chain (Tpm3),serum DEPs; [3],1.11
same,"TDMQ20-H/ctrl fold change: Alpha-aminoadipic semialdehyde synthase, mitochondrial (Aass)",serum DEPs; [4],0.93
same,TDMQ20-H/ctrl fold change: Cystatin-C (Cst3),serum DEPs; [4],0.92
same,TDMQ20-H/ctrl fold change: Elongation factor 1-delta (Eef1d),serum DEPs; [4],0.88
same,"TDMQ20-H/ctrl fold change: GrpE protein homolog 1, mitochondrial (Grpel1)",serum DEPs; [4],1.04
same,TDMQ20-H/ctrl fold change: Transgelin-2 (Tagln2),serum DEPs; [4],0.91
same,TDMQ20-H/ctrl fold change: Ig heavy chain V region 1-72 (Ighv1-72),serum DEPs; [5],1.15
same,TDMQ20-H/ctrl fold change: Regucalcin (Rgn),serum DEPs; [5],0.88
same,TDMQ20-H/ctrl fold change: Ribonuclease 4 (Rnase4),serum DEPs; [5],1.03
same,TDMQ20-H/ctrl fold change: Triokinase/FMN cyclase (Tkfc),serum DEPs; [5],0.95
same,TDMQ20-H/ctrl fold change: Tropomyosin alpha-3 chain (Tpm3),serum DEPs; [5],0.95
same,copper content in feces versus untreated WD mice or DPA 200 mg/kg/day,"[1]; TX mice, TDMQ20 25 or 50 mg/kg/day",significantly higher
same,Cu content Brain,[1]; [6],3.5 ± 0.1 mg/kg
same,Cu content Feces,[1]; [6],142 ± 10 mg/kg
same,Cu content Kidney,[1]; [6],11.0 ± 1.7 mg/kg
same,Cu content Liver,[1]; [6],200 ± 14 mg/kg
same,Cu content Serum,[1]; [6],3.5 ± 0.6 mg/L
same,Cu content Urine,[1]; [6],0.98 ± 0.05 mg/L
same,Cu content Brain,[1]; [7],3.2 ± 0.2 mg/kg
same,Cu content Feces,[1]; [7],88 ± 3 mg/kg
same,Cu content Kidney,[1]; [7],5.5 ± 0.3 mg/kg
same,Cu content Liver,[1]; [7],290 ± 4 mg/kg
same,Cu content Serum,[1]; [7],0.63 ± 0.04 mg/L
same,Cu content Urine,[1]; [7],0.76 ± 0.13 mg/L
same,Cu content Brain,[1]; [8],3.3 ± 0.2 mg/kg
same,Cu content Feces,[1]; [8],129 ± 4 mg/kg
same,Cu content Kidney,[1]; [8],5.0 ± 0.4 mg/kg
same,Cu content Liver,[1]; [8],256 mg/kg and 256 ± 8 mg/kg
same,Cu content Serum,[1]; [8],0.83 ± 0.12 mg/L
same,Cu content Urine,[1]; [8],0.67 ± 0.10 mg/L
same,"copper concentration in urine, concentration ratio TDMQ20-H/WD","[1]; TX mice, TDMQ20 at 50 mg/kg, factor versus WD mice, 50 mg/kg",1.8 and 1.75
same,"concentration of copper in kidney, factor versus WD mice","[1]; TX mice, TDMQ20 at 50 mg/kg, ratio TDMQ20-H/WD",1.64
same,copper concentration in the brain versus WD mice,"[1]; mouse, in vivo",no increase of copper concentration
